Read-outs that look alike come from different tables or passages of the source.
How the values were obtained:
[1] = type: physicochemical; conditions: 19 seconds
Excerpt: A hydraulic conveyor of a plant for sorting and packaging apples containing a volume of 90 m^3 of water as composition for conveying Ariane, Rosy Glow and Pink Lady apples comprises a sanitising device in accordance with the invention formed of six photolysis chambers mounted in series, each chamber comprising five fluorescent tubes having an individual power of 200 W. The flow rate of the composition for conveying apples in the sanitising device is 36 m^3/h. It has been observed that the plurality of photolysis chambers mounted in series allows a rate of degradation of 96% of the initial boscalid to be achieved with a flow rate of the composition to be treated of 36 m^3/h and for an average residence time of the conveying composition in the sanitising device in the order of 19 seconds.

[2] = Example 6: pilot device, degradation of different amounts of boscalid (FIG. 7); type: physicochemical; conditions: boscalid 25, 80 and 200 μg/l; hydrogen peroxide 2 mg/l continuously added; 6 m^3/h
Excerpt: (§1) A semi-industrial pilot device in accordance with one aspect of the invention comprises a tank for recirculating water to be treated of a volume of 1000 l, a circulation pump ensuring a circulation flow of the water to be treated in a sanitising device with a flow rate between 4 m^3 to 8 m^3/h. The sanitising device comprises a photolysis chamber comprising an inlet for water from the recirculation tank and an outlet for sanitised water directed to the recirculation tank. The photolysis chamber is formed of a rigid tubular envelope, of which the external wall is opaque to light and forming an inner space suitable for receiving five fluorescent tubes with a longitudinal axis extending in parallel with the longitudinal axis of the rigid tubular envelope. The inner volume of the decontamination reactor is in the order of […].
The five fluorescent tubes are tubes of 200 W emitting light at a wavelength of 254 nm and arranged longitudinally in the tubular envelope at the five points of a regular pentagon and in contact with the water to be treated flowing in the photolysis chamber. In this configuration of the sanitising device, the water to be sanitised flowing in contact with the five fluorescent tubes is subjected to substantially homogeneous illumination in the order of 500 mJ/cm^2 for a circulation flow rate of water to be sanitised in the order of 6 m^3/h. […]

[3] = type: physicochemical; conditions: 10 min, 25 μg/l
Excerpt: The semi-industrial pilot device comprises a tank for composition to be treated of a volume of 1000 l, a circulation pump ensuring a flow of composition to be treated in a sanitising device with a flow rate of 6 m^3/h. The sanitising device comprises a single photolysis chamber comprising an inlet for water from the tank of composition to be treated and an outlet for sanitised water directed to the tank of composition to be treated. The composition to be treated comprises boscalid at an initial concentration of 25 μg/l and an initial hydrogen peroxide concentration of 2 mg/l.
The photolysis chamber is formed of a rigid tubular envelope, of which the external wall is opaque to light and forming an inner space suitable for receiving five fluorescent tubes with a longitudinal axis extending in parallel with the longitudinal axis of the rigid tubular envelope. The inner volume of the decontamination reactor is in the order of 32 l. The five fluorescent tubes are tubes of 200 W emitting light at a wavelength of 254 nm and arranged longitudinally in the tubular envelope at the five points of a regular pentagon and in contact with the water to be treated flowing in the photolysis chamber.
After 10 minutes of operation of the semi-industrial pilot device, almost all of the composition to be treated has been illuminated in the photolysis chamber. […]

[4] = type: physicochemical; conditions: 250 μg/l
Excerpt: as §1
The five fluorescent tubes are tubes of 200 W emitting light at a wavelength of 254 nm and arranged longitudinally in the tubular envelope at the five points of a regular pentagon and in contact with the water to be treated flowing in the photolysis chamber. In this configuration of the sanitising device, the water to be sanitised flowing in contact with the five fluorescent tubes is subjected to substantially homogeneous illumination in the order of 500 mJ/cm^2 for a circulation flow rate of water to be sanitised in the order of 6 m^3/h. The semi-industrial pilot device also comprises a tank for storing an aqueous solution of hydrogen peroxide (H2O2) provided with a pump for distributing said solution in the circulation flow of water to be sanitised issuing into the circuit of water to be sanitised upstream of and in proximity to the photolysis chamber. The concentration of the hydrogen peroxide in the aqueous solution of hydrogen peroxide is between 2 m g/l and 13 mg/l. The set-point flow rate of the pump for distributing solution of H2O2 is kept at 4 l/h.
The flow rate of the recycling pump is 6 m^3/h and the initial boscalid concentration in the recirculation tank is 250 μg/l. The 5 lamps of the sanitising device are switched on. […]

SMILES: O=C(Nc1ccccc1-c1ccc(Cl)cc1)c1cccnc1Cl [boscalid]
- rate of degradation of the initial boscalid [1]: 96%
- residual amount of boscalid [2]: less than 80%
- rate of degradation of the initial boscalid [3]: 58%
- final rate of degradation [4]: 95%
- initial degradation [4]: equivalent to that obtained with the addition of hydrogen peroxide at the concentration of 13 mg/l
- degradation of the initial boscalid ([4]; 1 h): 10%

— US10919785B2, “Hydraulic conveyor of floating objects provided with a device for sanitising conveying composition, plant provided with such a conveyor and sanitising method” (MAF AGROBOTIC, priority 2016, dated 2021)
